Measured values published in patent US10150728B2, “Alkylene derivatives” (Shionogi & Co., Ltd., priority 2013, dated 2018).

Legend:
recombinant human ACC2 = recombinant human ACC2 (Homo sapiens (Human), UniProt O00763); assay: Measurement of inhibitory activity on human ACC2 (MALDI-TOF MS, acetyl CoA to malonyl CoA conversion); format: biochemical
Summary of the method: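 His-tagged human ACC2 (residues 27–2458) from baculovirus-infected Sf-9 cells was preincubated 1 h in pH 7.4 HEPES-KOH buffer with MgCl2, 6-10 mM potassium citrate, glutathione and BSA. Substrate solution held 1 mM ATP, 0.8 mM acetyl CoA and 25-50 mM bicarbonate. After 1–3 h at room temperature, malonyl CoA/(malonyl+acetyl CoA) was read by negative-mode MALDI-TOF MS; citrate, bicarbonate and time varied by enzyme lot.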

recombinant human ACC1 = recombinant human ACC1 (Homo sapiens (Human), UniProt Q13085); assay: Measurement of inhibitory activity on human ACC1 (MALDI-TOF MS, acetyl CoA to malonyl CoA conversion); format: biochemical
Excerpt: Preparation 2: Preparation of Recombinant Human ACC1
After a cDNA encoding human ACC1 (1 amino acid residue to 2346 amino acid residues from the N-terminus) was cloned from human liver cDNA library (BioChain), human ACC1 gene containing myc-tag and His-tag sequence at 3′ terminus was inserted into pIEXBAC3 (Novagen). Recombinant baculovirus was generated using FlashBACGOLD system (Oxford Expression Technologies) according to the manufacturer's protocol. To express human ACC1, Sf-9 cells were infected with recombinant baculovirus. After infected cells were disrupted, the filtrated lysate was subjected to Ni-affinity chromatography and anion-exchange chromatography. The fractions containing human ACC1 protein were pooled as recombinant human ACC1 solution.
The Measurement of Inhibitory Activity on Human ACC1 and the ACC2
Recombinant human ACC1 and recombinant human ACC2, which were prepared by the method mentioned above, were preincubated with assay buffer solution (50 mM HEPES-KOH (pH 7.4), 10 mM magnesium chloride, 6-10 mM potassium citrate, 4 mM reduced form of glutathione, 1.5 mg/ml bovine serum albumin) for one hour. Then, 0.2 μL of each this invention compound solution (in DMSO) were dispensed to 384-well microplate, 5 μL of the preincubated enzyme solution and 5 μL of substrate solution (50 mM HEPES-KOH (pH 7.4), 1 mM ATP, 0.8 mM acetyl CoA and 25-50 mM potassium bicarbonate) were added to microplate. After centrifugation and shaking, the reaction mixtures were incubated in a humidified box at room temperature for 1 to 3 hours. After the incubation, the enzyme reactions were stopped by the addition of EDTA. Then, after the samples were cocrystallized with CHCA (α-cyano-4-hydroxy cinnamic acid) matrices on MALDI target plate, by using the matrix assist laser […] time-of-flight mass spectrometer (MALDI-TOF MS), samples were measured in reflector negative mode. Deprotonated ions of acetyl CoA (AcCoA) of substrate and malonyl CoA (MalCoA) of the reaction product were detected, then, the conversion rates of acetyl CoA to malonyl CoA was calculated by the intensity of [MalCoA-H]−/(Intensity of [MalCoA-H]−+Intensity of [AcCoA-H]−) using each signal strength. […] In addition, potassium citrate concentrations in assay buffer solution, potassium hydrogen carbonate concentrations in substrate solution and incubation time were adjusted by each lot of enzyme.

Chain of recombinant human ACC2 (O00763 27-2458): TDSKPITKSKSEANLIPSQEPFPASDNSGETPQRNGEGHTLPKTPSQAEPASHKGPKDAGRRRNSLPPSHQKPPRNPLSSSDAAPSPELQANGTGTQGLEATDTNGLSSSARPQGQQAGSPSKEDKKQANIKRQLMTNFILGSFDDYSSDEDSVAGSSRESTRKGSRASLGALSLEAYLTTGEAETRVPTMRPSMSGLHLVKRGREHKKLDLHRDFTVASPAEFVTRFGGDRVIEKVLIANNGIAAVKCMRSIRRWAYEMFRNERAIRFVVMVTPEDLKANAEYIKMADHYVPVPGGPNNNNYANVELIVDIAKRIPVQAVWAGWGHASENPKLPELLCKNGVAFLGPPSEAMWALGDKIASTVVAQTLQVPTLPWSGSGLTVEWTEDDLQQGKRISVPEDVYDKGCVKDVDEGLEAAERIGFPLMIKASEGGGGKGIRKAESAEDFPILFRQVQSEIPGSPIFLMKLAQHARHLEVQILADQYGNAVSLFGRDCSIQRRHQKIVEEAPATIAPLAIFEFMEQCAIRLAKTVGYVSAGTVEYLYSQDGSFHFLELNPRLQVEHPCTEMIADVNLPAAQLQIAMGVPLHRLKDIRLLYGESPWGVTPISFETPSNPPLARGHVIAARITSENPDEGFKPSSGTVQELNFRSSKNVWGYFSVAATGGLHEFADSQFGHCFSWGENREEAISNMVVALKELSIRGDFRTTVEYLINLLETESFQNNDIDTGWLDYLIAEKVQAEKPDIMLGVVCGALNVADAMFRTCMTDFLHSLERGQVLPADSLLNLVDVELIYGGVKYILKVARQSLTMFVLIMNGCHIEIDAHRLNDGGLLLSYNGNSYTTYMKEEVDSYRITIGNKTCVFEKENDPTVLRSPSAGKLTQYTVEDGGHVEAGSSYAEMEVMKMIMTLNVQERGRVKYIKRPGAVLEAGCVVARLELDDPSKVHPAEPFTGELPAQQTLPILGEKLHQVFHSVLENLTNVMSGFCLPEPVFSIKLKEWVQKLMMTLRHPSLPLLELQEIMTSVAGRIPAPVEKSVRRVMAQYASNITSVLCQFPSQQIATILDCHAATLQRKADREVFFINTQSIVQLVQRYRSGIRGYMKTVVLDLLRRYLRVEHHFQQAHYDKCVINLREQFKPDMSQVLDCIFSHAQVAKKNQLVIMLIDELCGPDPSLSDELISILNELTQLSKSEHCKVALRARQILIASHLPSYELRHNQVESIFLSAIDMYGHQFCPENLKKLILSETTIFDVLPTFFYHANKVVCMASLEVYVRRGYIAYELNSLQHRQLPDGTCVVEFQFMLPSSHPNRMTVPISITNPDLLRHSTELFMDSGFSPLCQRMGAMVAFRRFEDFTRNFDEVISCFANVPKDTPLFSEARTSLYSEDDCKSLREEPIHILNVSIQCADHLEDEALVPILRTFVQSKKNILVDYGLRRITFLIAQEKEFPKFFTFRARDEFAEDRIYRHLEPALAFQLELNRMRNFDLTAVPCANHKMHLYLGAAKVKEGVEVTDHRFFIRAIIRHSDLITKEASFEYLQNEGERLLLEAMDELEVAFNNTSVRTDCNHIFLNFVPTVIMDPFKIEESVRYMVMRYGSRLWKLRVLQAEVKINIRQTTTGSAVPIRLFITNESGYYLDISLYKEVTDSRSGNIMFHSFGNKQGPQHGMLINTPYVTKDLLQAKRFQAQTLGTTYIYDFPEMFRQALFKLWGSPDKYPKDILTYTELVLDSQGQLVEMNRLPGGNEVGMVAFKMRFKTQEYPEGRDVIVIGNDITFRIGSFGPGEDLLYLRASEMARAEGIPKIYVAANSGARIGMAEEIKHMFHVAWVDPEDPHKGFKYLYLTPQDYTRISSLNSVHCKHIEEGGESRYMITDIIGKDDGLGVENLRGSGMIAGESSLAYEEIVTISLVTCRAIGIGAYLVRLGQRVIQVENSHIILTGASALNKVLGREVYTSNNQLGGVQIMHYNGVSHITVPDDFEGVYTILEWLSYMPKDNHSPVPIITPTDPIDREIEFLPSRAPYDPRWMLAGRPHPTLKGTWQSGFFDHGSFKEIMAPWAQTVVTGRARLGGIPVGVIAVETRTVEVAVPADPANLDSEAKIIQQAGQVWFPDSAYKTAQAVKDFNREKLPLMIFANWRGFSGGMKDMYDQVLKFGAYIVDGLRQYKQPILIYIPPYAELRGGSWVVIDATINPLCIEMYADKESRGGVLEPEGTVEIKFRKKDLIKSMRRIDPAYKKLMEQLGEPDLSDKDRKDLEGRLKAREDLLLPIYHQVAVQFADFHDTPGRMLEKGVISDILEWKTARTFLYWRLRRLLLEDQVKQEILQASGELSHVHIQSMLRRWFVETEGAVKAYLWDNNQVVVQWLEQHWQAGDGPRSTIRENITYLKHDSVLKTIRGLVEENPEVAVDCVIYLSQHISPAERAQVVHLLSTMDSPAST

Row | SMILES | IC50 (recombinant human ACC2; Table 154) [nM] | IC50 (recombinant human ACC1) [nM] | IC50 (recombinant human ACC2; Tables 155-159) [nM]
1 | CC(=O)N[C@@H](C)CC(=O)c1ccc(Oc2ccc(OCC3CC3)cc2Cl)cc1 [Compound I-001] | 71 | > 100000 | 
2 | CC(=O)N[C@@H](C)CC(=O)c1cnc(Oc2ccc(OCC3CC3)cc2Cl)s1 [Compound I-002] | 770 | > 100000 | 
3 | CCCc1ccc(Oc2ccc(OC[C@H](C)NC(=O)OC(C)(C)C)cn2)c(Cl)c1 [Compound I-003] |  | > 100000 | 
4 | CC(=O)N[C@@H](C)COc1cnc(Oc2ccc3nc(C(C)C)oc3c2Cl)cn1 [Compound I-037] | 167 | > 100000 | 
5 | CCn1c(=O)sc2c(F)c(Oc3cnc(O[C@@H](C)[C@H](C)NC(C)=O)cn3)ccc21 [Compound I-058] |  | > 100000 | 
6 | CC(=O)N[C@@H](C)CO[C@H]1CC[C@H](Oc2ccc3nn(C(C)C)cc3c2Cl)CC1 [Compound I-067] | 933 | > 100000 | 
7 | CC(=O)N[C@@H](C)CO[C@H]1CC[C@H](Oc2ncc3cc(Br)ccc3n2)CC1 [Compound I-079] | 1760 | > 100000 | 
8 | CC(=O)N[C@@H](C)COc1cnc(Oc2ccc3nc(C(C)C)ncc3c2Cl)cn1 [Compound I-081] | 344 | > 100000 | 
9 | CC(=O)N[C@@H](C)COc1cnc(Oc2ccc(C(=O)NC3CCOCC3)c(F)c2F)cn1 [Compound I-091] |  | > 100000 | 
10 | CC(=O)N[C@@H](C)CO[C@H]1C[C@H](COc2ccc3nc(C(C)(F)F)sc3c2Cl)C1 [Compound I-098] | 792 | > 100000 | 
11 | CCOc1nc2ccc(OC[C@H]3C[C@H](OC[C@H](C)NC(C)=O)C3)c(C#N)c2s1 [Compound I-103] | 4500 | > 100000 | 
12 | CC(=O)N[C@H]1CCC[C@@H]1Oc1ccc(Oc2ccc3nc(C(C)C)sc3c2Cl)cn1 [Compound I-106] | 91 | > 100000 | 
13 | CC(=O)N[C@@H](C)[C@@H](C)O[C@H]1CC[C@H](Oc2nc3cnc(OC4CC4)c(F)c3n2C)CC1 [Compound I-746] |  |  | 350
14 | CC(=O)N[C@@H](C)CC[C@H]1OC[C@H](Oc2nc3c(F)cc(OCC(F)F)c(Cl)c3n2C)CO1 [Compound I-748] |  |  | 5

The next lines start with the values.

Row | IC50 (recombinant human ACC2; Table 154) [nM] | IC50 (recombinant human ACC1) [nM] | IC50 (recombinant human ACC2; Tables 155-159) [nM] | SMILES
15 |  |  | 33 | CC(=O)N[C@@H](C)CO[C@H]1CC[C@H](Oc2nc3c(F)cc(OCC4CC4)cc3n2C)CC1 [Compound I-737]
16 |  |  | 35 | CC(=O)N[C@@H](C)CO[C@H]1CC[C@H](Oc2nc3c(Br)cc(OCc4ccccc4)cc3n2C)CC1 [Compound I-738]
17 |  |  | 7 | CCOc1cc(Cl)c2nc(O[C@H]3CC[C@H](OC[C@H](C)NC(C)=O)CC3)n(C)c2c1Cl [Compound I-739]
18 |  |  | 3 | CCOc1cc(F)c2nc(O[C@H]3CC[C@H](OC[C@H](C)NC(C)=O)CC3)n(C)c2c1Cl [Compound I-740]
19 |  |  | 7 | CC(=O)N[C@@H](C)CO[C@H]1CC[C@H](Oc2nc3c(F)cc(OCC(F)F)c(F)c3n2C)CC1 [Compound I-741]
20 |  |  | 13 | CC(=O)N[C@@H](C)CO[C@H]1CC[C@H](Oc2nc3c(Cl)cc(OCC(F)F)c(F)c3n2C)CC1 [Compound I-742]
21 |  |  | 740 | CC(=O)N[C@@H](C)CO[C@H]1CC[C@H](Nc2nc3c(F)cc(OCC(F)F)c(F)c3n2C)CC1 [Compound I-744]
22 |  |  | 490 | CC(=O)N[C@@H](C)CC(O)[C@@H]1CC[C@@H](Oc2nc3c(F)cc(OCC(F)F)c(F)c3n2C)CO1 (some centres unmarked) [Compound I-745]
23 |  |  | 44 | CC(=O)N[C@@H](C)CO[C@H]1CC[C@H](Oc2nc3c(F)c(C#N)c(OCC(F)F)c(F)c3n2C)CC1 [Compound I-747]
